Assay results as given in US10131652B2, “Pyrimidinyloxy benzene derivatives as herbicides” (E. I. DU PONT DE NEMOURS AND COMPANY, priority 2014, dated 2018).
Where two headings read alike, the source gives them in different places.

Key:
Test in all cases: Test F pre-/postemergence plant response
Format in all cases: in vivo
[1] = test system: arrowleaf sida (Sida rhombifolia); settings: Sida rhombifolia, scale 0 to 100, read-out: Plant response rating, Arrowleaf Sida
In short: (§1)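 Seeds were sown in silt loam and sprayed preemergence; in parallel, plants at 2–18 cm (1- to 4-leaf) received postemergence sprays. Test chemicals were in a non-phytotoxic solvent with surfactant. After 14–21 days in the greenhouse, injury was rated visually against controls on a 0–100 scale (100 = complete control).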

corn (Zea mays) = settings: Zea mays, scale 0 to 100
In short: as §1

[2] = test system: fall panicum (Panicum dichotomiflorum); settings: Panicum dichotomiflorum, scale 0 to 100, read-out: Plant response rating, Panicum, Fall
In short: as §1

[3] = test system: field bindweed (Convolvulus arvensis); settings: Convolvulus arvensis, scale 0 to 100, read-out: Plant response rating, Field Bindweed
In short: as §1

[4] = test system: giant foxtail (Setaria faberii); settings: Setaria faberi, pre-emergence, scale 0 to 100, read-out: Plant response rating, Foxtail, Giant
In short: as §1

[5] = test system: goosegrass (Eleusine indica); settings: Eleusine indica, pre-emergence, scale 0 to 100, read-out: Plant response rating, Goosegrass
In short: as §1

kochia (Kochia scoparia) = settings: Bassia scoparia, scale 0 to 100, read-out: Plant response rating, Kochia; for pest or weed control at 16 g/ha: 16 g ai/ha; for pest or weed control at 31 g/ha: 31 g ai/ha; for pest or weed control at 125 g/ha: 125 g ai/ha
In short: as §1

[6] = test system: palmer pigweed (Amaranthus palmeri); settings: Amaranthus palmeri, scale 0 to 100, read-out: Plant response rating, Pigweed, Palmer
In short: as §1

soybean (Glycine max) = settings: Glycine max, scale 0 to 100, read-out: Plant response rating, Soybean
In short: as §1

[7] = test system: surinam grass (Brachiaria decumbens); settings: Urochloa decumbens, pre-emergence, scale 0 to 100, read-out: Plant response rating, Surinam Grass
In short: as §1

[8] = test system: velvetleaf (Abutilon theophrasti); settings: Abutilon theophrasti, pre-emergence, scale 0 to 100, read-out: Plant response rating, Velvetleaf
In short: as §1

[9] = post-emergence, 16 g ai/ha Postemergence
[10] = post-emergence, 31 g ai/ha Postemergence
[11] = post-emergence, 62 g ai/ha Postemergence
[12] = post-emergence, 125 g ai/ha Postemergence
[13] = pre-emergence, 16 g ai/ha Preemergence
[14] = pre-emergence, 31 g ai/ha Preemergence
[15] = pre-emergence, 62 g ai/ha Preemergence
[16] = pre-emergence, 125 g ai/ha Preemergence

Fc1cccc(Oc2ncc(Cl)cn2)c1-c1cc(C(F)F)no1 [Compound 144, 5-chloro-2-[2-[3-(difluoromethyl)-5-isoxazolyl]-3-fluorophenoxy]pyrimidine]
pest or weed control at 16 g/ha [1, 9]: 100% | pest or weed control at 31 g/ha [1, 10]: 100% | pest or weed control at 62 g/ha [1, 11]: 100% | pest or weed control at 125 g/ha [1, 12]: 100% | pest or weed control at 16 g/ha [1, 13]: 95% | pest or weed control at 31 g/ha [1, 14]: 100% | pest or weed control at 62 g/ha [1, 15]: 100% | pest or weed control at 125 g/ha [1, 16]: 100% | Corn plant response rating (crop injury, 0 = no effect, 100 = complete kill) at 16 g/ha (corn (Zea mays); [9]): 10% | Corn plant response rating (crop injury, 0 = no effect, 100 = complete kill) at 31 g/ha (corn (Zea mays); [10]): 5% | Corn plant response rating (crop injury, 0 = no effect, 100 = complete kill) at 62 g/ha (corn (Zea mays); [11]): 10% | Corn plant response rating (crop injury, 0 = no effect, 100 = complete kill) at 125 g/ha (corn (Zea mays); [12]): 10% | Corn plant response rating (crop injury, 0 = no effect, 100 = complete kill) at 16 g/ha (corn (Zea mays); [13]): 0% | Corn plant response rating (crop injury, 0 = no effect, 100 = complete kill) at 31 g/ha (corn (Zea mays); [14]): 0% | Corn plant response rating (crop injury, 0 = no effect, 100 = complete kill) at 62 g/ha (corn (Zea mays); [15]): 40% | Corn plant response rating (crop injury, 0 = no effect, 100 = complete kill) at 125 g/ha (corn (Zea mays); [16]): 35% | pest or weed control at 16 g/ha [2, 9]: 25% | pest or weed control at 31 g/ha [2, 10]: 30% | pest or weed control at 62 g/ha [2, 11]: 35% | pest or weed control at 125 g/ha [2, 12]: 60% | pest or weed control at 16 g/ha [2, 13]: 95% | pest or weed control at 31 g/ha [2, 14]: 100% | pest or weed control at 125 g/ha [2, 16]: 100% | pest or weed control at 62 g/ha ([2]; pre-emergence, Preemergence): 100% | pest or weed control at 16 g/ha [3, 9]: 70% | pest or weed control at 31 g/ha [3, 10]: 75% | pest or weed control at 62 g/ha [3, 11]: 80% | pest or weed control at 125 g/ha [3, 12]: 90% | pest or weed control at 16 g/ha [3, 13]: 40% | pest or weed control at 31 g/ha [3, 14]: 60% | pest or weed control at 62 g/ha [3, 15]: 65% | pest or weed control at 125 g/ha [3, 16]: 70% | pest or weed control at 16 g/ha ([4]; 16 g ai/ha Preemergence): 15% | pest or weed control at 31 g/ha ([4]; 31 g ai/ha Preemergence): 90% | pest or weed control at 62 g/ha ([4]; 62 g ai/ha Preemergence): 95% | pest or weed control at 125 g/ha ([4]; 125 g ai/ha Preemergence): 100% | pest or weed control at 16 g/ha ([5]; 16 g ai/ha Preemergence): 75% | pest or weed control at 31 g/ha ([5]; 31 g ai/ha Preemergence): 60% | pest or weed control at 125 g/ha ([5]; 125 g ai/ha Preemergence): 100% | pest or weed control at 62 g/ha ([5]; Preemergence): 95% | pest or weed control at 16 g/ha (kochia (Kochia scoparia); post-emergence, Postemergence): 95% | pest or weed control at 31 g/ha (kochia (Kochia scoparia); post-emergence, Postemergence): 95% | pest or weed control at 62 g/ha (kochia (Kochia scoparia); post-emergence, 62 g ai/ha, Postemergence): 95% | pest or weed control at 125 g/ha (kochia (Kochia scoparia); post-emergence, Postemergence): 95% | pest or weed control at 16 g/ha (kochia (Kochia scoparia); pre-emergence, Preemergence): 98% | pest or weed control at 31 g/ha (kochia (Kochia scoparia); pre-emergence, Preemergence): 100% | pest or weed control at 125 g/ha (kochia (Kochia scoparia); pre-emergence, Preemergence): 100% | pest or weed control at 62 g/ha (kochia (Kochia scoparia); pre-emergence, Preemergence): 100% | pest or weed control at 16 g/ha [6, 9]: 90% | pest or weed control at 31 g/ha [6, 10]: 100% | pest or weed control at 62 g/ha [6, 11]: 100% | pest or weed control at 125 g/ha [6, 12]: 100% | pest or weed control at 16 g/ha [6, 13]: 100% | pest or weed control at 31 g/ha [6, 14]: 100% | pest or weed control at 125 g/ha [6, 16]: 100% | pest or weed control at 62 g/ha ([6]; pre-emergence, Preemergence): 100% | plant injury at 16 g/ha (soybean (Glycine max); [9]): 65% | plant injury at 31 g/ha (soybean (Glycine max); [10]): 95% | plant injury at 62 g/ha (soybean (Glycine max); [11]): 98% | plant injury at 125 g/ha (soybean (Glycine max); [12]): 95% | plant injury at 31 g/ha (soybean (Glycine max); [14]): 10% | plant injury at 125 g/ha (soybean (Glycine max); [16]): 75% | plant injury at 62 g/ha (soybean (Glycine max); pre-emergence, Preemergence): 40% | pest or weed control at 16 g/ha ([7]; 16 g ai/ha Preemergence): 0% | pest or weed control at 31 g/ha ([7]; 31 g ai/ha Preemergence): 75% | pest or weed control at 125 g/ha ([7]; 125 g ai/ha Preemergence): 80% | pest or weed control at 62 g/ha ([7]; Preemergence): 75% | pest or weed control at 16 g/ha ([8]; 16 g ai/ha Preemergence): 80% | pest or weed control at 31 g/ha ([8]; 31 g ai/ha Preemergence): 100% | pest or weed control at 125 g/ha ([8]; 125 g ai/ha Preemergence): 100% | pest or weed control at 62 g/ha ([8]; Preemergence): 100%
